Consider one compound from ChEMBL document CHEMBL1129655, “A comparative molecular field analysis study of N-benzylpiperidines as acetylcholinesterase inhibitors” (J Med Chem, 1996).

The assay concerns the target T1, Acetylcholinesterase (Mus musculus, UniProt P21836).
T1 sequence (P21836 whole entry): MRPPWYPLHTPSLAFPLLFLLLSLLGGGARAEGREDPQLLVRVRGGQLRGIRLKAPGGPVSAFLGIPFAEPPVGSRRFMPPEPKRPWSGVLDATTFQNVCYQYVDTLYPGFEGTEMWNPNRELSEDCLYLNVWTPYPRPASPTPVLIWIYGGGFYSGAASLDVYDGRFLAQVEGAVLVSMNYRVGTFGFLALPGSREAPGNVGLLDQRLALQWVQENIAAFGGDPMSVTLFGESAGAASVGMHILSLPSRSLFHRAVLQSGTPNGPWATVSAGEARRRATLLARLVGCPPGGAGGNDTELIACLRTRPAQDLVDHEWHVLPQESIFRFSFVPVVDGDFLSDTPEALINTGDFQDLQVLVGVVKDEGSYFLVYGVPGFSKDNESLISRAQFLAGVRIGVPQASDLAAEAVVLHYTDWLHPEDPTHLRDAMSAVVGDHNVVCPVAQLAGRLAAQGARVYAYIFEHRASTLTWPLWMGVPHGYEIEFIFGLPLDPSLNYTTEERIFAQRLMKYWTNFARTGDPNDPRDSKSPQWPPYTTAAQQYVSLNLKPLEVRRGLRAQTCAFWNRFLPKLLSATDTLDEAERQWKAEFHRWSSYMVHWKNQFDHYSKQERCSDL
Description: Inhibition against Acetylcholinesterase (AChE)

`O=C(NCCC1CCN(CCc2ccccc2)CC1)c1ccccc1` had an IC50 of 13 µM.

One may read the IC50 as the concentration needed to halve the response being measured. A low value points to higher potency.
